In assay [1] the target is T1, truncated human 11β-HSD-1 enzyme (24-287AA) (Homo sapiens, UniProt P28845).
T1 construct: truncated human 11β-HSD-1 enzyme (24-287AA); made in house; host or cells: E. coli (lysate)
In words: Human 11β-HSD-1 enzymatic SPA assay. Type of assay: biochemical. As to the method: (§1) The ability of test compounds to inhibit human 11β-HSD-1 enzymatic activity in vitro was evaluated in a Scintillation Proximity Assay (SPA). […] The reaction was stopped by adding a non-specific 11β-HSD inhibitor, 18β-glycyrrhetinic acid. The tritiated cortisol was captured by a mixture of an anti-cortisol monoclonal antibody and SPA beads coated with anti-mouse antibodies. The reaction plate was shaken at room temperature and the radioactivity bound to SPA beads was then measured on a β-scintillation counter. The 11β-HSD-1 assay was carried out in 96-well microtiter plates in a total volume of 220 μl. […] In order to drive the reaction in the forward direction, 1 mM G-6-P was also added. Solid compound was dissolved in DMSO to make a 10 mM stock followed by a subsequent 10-fold dilution with 3% DMSO in Tris/EDTA buffer (pH 7.4). 22 μl of titrated compounds was then added in triplicate to the substrate. Reactions were initiated by the addition of 10 μl of 0.1 mg/ml E. coli lysates overexpressing 11β-HSD-1 enzyme. After shaking and incubating plates for 30 minutes at room temperature, reactions were stopped by adding 10 μl of 1 mM glycyrrhetinic acid. The product, tritiated cortisol, was captured by adding 10 μl of 1 μM monoclonal anti-cortisol antibodies and 100 μl SPA beads coated with anti-mouse antibodies. After shaking for 30 minutes, plates were read on a liquid scintillation counter Topcount. Percent inhibition was calculated based on the background and the maximal signal. Wells that contained substrate without compound or enzyme were used as the background, while the wells that contained substrate and enzyme without any compound were considered as maximal signal. Percent of inhibition of each compound was calculated relative to the maximal signal and IC50 curves were generated. This assay was applied to 11β-HSD-2 as well, whereby tritiated cortisol and NAD^+ were used as substrate and cofactor, respectively.

In a further assay the target is T2, human 11β-HSD-2 (Homo sapiens, UniProt P80365).
T2 sequence (P80365 1-405): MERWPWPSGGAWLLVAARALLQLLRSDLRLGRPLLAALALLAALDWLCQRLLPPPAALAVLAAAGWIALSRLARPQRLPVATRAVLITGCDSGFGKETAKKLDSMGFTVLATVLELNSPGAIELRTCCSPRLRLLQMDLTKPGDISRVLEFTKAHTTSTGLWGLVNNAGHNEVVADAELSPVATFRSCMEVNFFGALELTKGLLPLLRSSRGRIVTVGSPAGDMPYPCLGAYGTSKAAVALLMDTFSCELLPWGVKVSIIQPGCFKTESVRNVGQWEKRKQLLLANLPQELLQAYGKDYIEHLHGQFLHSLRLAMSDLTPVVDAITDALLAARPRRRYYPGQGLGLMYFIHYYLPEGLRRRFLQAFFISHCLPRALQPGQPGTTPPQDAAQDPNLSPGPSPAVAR
The assay can be described thus: Human 11β-HSD-2 enzymatic SPA assay. Type of assay: biochemical. As to the method:
as §1

Read-outs that look alike come from different tables or passages of the source. Some results are limits rather than exact numbers.

We go through 26 compounds from US8871208B2, “11-β-hydroxysteroid dehydrogenase type 1 (11β-HSD1) inhibitors and uses thereof” (AbbVie Inc., priority 2009, dated 2014).

T1 sequence (P28845 24-287): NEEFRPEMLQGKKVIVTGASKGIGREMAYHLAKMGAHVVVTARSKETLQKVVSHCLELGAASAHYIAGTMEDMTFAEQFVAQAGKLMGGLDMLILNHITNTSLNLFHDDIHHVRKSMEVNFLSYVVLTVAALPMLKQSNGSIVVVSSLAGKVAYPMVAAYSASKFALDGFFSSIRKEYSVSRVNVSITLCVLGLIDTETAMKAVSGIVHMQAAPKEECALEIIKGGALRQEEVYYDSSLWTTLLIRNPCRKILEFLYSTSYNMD

As a reminder, the IC50 is the concentration that gives 50% inhibition. As to `CC(C)(C(=O)N[C@@H]1[C@@H]2C[C@@H]3C[C@H]1C[C@@](C(=O)O)(C3)C2)c1ccccc1` [(E)-4-(2-methyl-2-phenyl-propionylamino)-adamantane-1-carboxylic acid], the IC50 in assay [1] (human enzyme, SPA) was 82 nM; against human 11β-HSD-2 (human enzyme, SPA) it was over 10000 nM.

For `CC(C)(OCc1ccc(C(F)(F)F)cc1)C(=O)N[C@@H]1[C@@H]2C[C@@H]3C[C@H]1C[C@@](C(N)=O)(C3)C2` [(E)-4-[(2-methyl-2-{[4-(trifluoromethyl)benzyl]oxy}propanoyl)amino]adamantane-1-carboxamide], the concentration for half-maximal inhibition (IC50) is 28 nM in assay [1] (human enzyme, SPA) and over 10000 nM against human 11β-HSD-2 (human enzyme, SPA).

In the case of `CC(C)(Oc1ccc(Cl)cc1)C(=O)N[C@@H]1[C@@H]2C[C@@H]3C[C@H]1C[C@@](CC(N)=O)(C3)C2` [N-[(E)-5-(2-amino-2-oxoethyl)-2-adamantyl]-2-(4-chlorophenoxy)-2-methylpropanamide], the IC50 turned out to be 43 nM in assay [1] (human enzyme, SPA) and 21000 nM against human 11β-HSD-2 (human enzyme, SPA).

Turning to `NC(=O)OC12CC3CC(C1)C(NC(=O)CN1CCN(c4ccc(C(F)(F)F)cn4)CC1)C(C3)C2` (stereo not shown) [(E)-4-[({4-[5-(trifluoromethyl)pyridin-2-yl]piperazin-1-yl}acetyl)amino]-1-adamantyl carbamate], the IC50 is 150 nM in assay [1] (human enzyme, SPA) and over 10000 nM against human 11β-HSD-2 (human enzyme, SPA).

Consider `CC(C(=O)NC1C2CC3CC1CC(NS(C)(=O)=O)(C3)C2)N1CCN(c2ccc(C(F)(F)F)cn2)CC1` (stereo not shown) [N-{(E)-5-[(methylsulfonyl)amino]-2-adamantyl}-2-{4-[5-(trifluoromethyl)pyridin-2-yl]piperazin-1-yl}propanamide], for which the IC50 is 67 nM in assay [1] (human enzyme, SPA) and over 30000 nM at human 11β-HSD-2 (human enzyme, SPA).

In the case of `CC1(C(=O)N[C@@H]2[C@@H]3C[C@@H]4C[C@H]2C[C@@](C(N)=O)(C4)C3)CCN(Cc2ccccc2Cl)C1=O` (stereo partly shown) [(E)-4-(aminocarbonyl)-2-adamantyl]-1-(2-chlorobenzyl)-3-methyl-2-oxopyrrolidine-3-carboxamide], the IC50 in assay [1] (human enzyme, SPA) was 23 nM; at human 11β-HSD-2 (human enzyme, SPA), 6300 nM.

As to `CC1(C)C(=O)N(C2CCCCCC2)CC1COc1ccccc1` (stereo not shown) [1-cycloheptyl-3,3-dimethyl-4-(phenoxymethyl)pyrrolidin-2-one], the IC50 in assay [1] (human enzyme, SPA) was 95 nM; on human 11β-HSD-2 (human enzyme, SPA), over 8750 nM.

With `CC(C)(C(=O)NC1C2CC3CC1CC(C(=O)O)(C3)C2)N1CCC(F)C1` [(E)-4-({2-[(3R)-3-Fluoropyrrolidin-1-yl]-2-methylpropanoyl}amino)adamantane-1-carboxylic acid], the IC50 is 58 nM in assay [1] (human enzyme, SPA) and over 10000 nM against human 11β-HSD-2 (human enzyme, SPA).

`CC12CCC(N3CC(COc4ccc(C#N)cn4)C(C)(C)C3=O)(CC1)CC2` (stereo not shown) [6-{[4,4-dimethyl-1-(4-methylbicyclo[2.2.2]oct-1-yl)-5-oxopyrrolidin-3-yl]methoxy}nicotinonitrile]: the IC50 in assay [1] (human enzyme, SPA) was 77 nM; on human 11β-HSD-2 (human enzyme, SPA) it was 8470 nM.

As for `CCN(CC)S(=O)(=O)c1cc(Cl)ccc1OC(C)(C)C(=O)NC1C2CC3CC1CC(C(N)=O)(C3)C2` (stereo not shown) [(E)-4-[(2-{4-chloro-2-[(diethylamino)sulfonyl]phenoxy}-2-methylpropanoyl)amino]adamantane-1-carboxamide], the IC50 in assay [1] (human enzyme, SPA) turned out to be 68 nM; on human 11β-HSD-2 (human enzyme, SPA) it was 65000 nM.

Turning to `CC(C)(Oc1ccc(-n2cccn2)cn1)C(=O)N[C@@H]1[C@@H]2C[C@@H]3C[C@H]1C[C@@](C(N)=O)(C3)C2` [(E)-4-[(2-methyl-2-{[5-(1H-pyrazol-1-yl)pyridin-2-yl]oxy}propanoyl)amino]adamantine-1-carboxamide], the half-maximal inhibitory concentration (IC50) was 30 nM in assay [1] (human enzyme, SPA) and over 100000 nM at human 11β-HSD-2 (human enzyme, SPA).

As to `CC(C)(Oc1ccc(Cl)cc1)C(=O)NC1C2CC3CC1CC(Cc1nn[nH]n1)(C3)C2` (stereo not shown) [2-(4-chlorophenoxy)-2-methyl-N-[(E)-5-(2H-tetraazol-5-ylmethyl)-2-adamantyl]propanamide], the IC50 in assay [1] (human enzyme, SPA) is 41 nM; against human 11β-HSD-2 (human enzyme, SPA), over 100000 nM.

As to `O=C(CN1CCN(c2ccc(C(F)(F)F)cn2)CC1)NC1C2CC3CC1CC(F)(C3)C2` (stereo not shown) [N-[(E)-5-fluoro-2-adamantyl]-2-{4-[5-(trifluoromethyl)pyridin-2-yl]piperazin-1-yl}acetamide], the IC50 is 140 nM in assay [1] and over 10000 nM on human 11β-HSD-2 (human enzyme, SPA).

On to `CC1(C)C(=O)N(C2C3CCCC2CC(C(N)=O)C3)CC1COc1ccc(C#N)cn1` (stereo not shown) [9-(4-{[(5-cyanopyridin-2-yl)oxy]methyl}-3,3-dimethyl-2-oxopyrrolidin-1-yl)bicyclo[3.3.1]nonane-3-carboxamide], for which the IC50 in assay [1] is 51 nM; at human 11β-HSD-2, 8280 nM.

For `Cc1ccccc1CN1CCC(C)(C(=O)NC2C3CC4CC(C3)C(C(N)=O)C2C4)C1=O` (stereo not shown) [(E)-4-(aminocarbonyl)-2-adamantyl]-3-methyl-1-(2-methylbenzyl)-2-oxopyrrolidine-3-carboxamide], the IC50 in assay [1] (human enzyme, SPA) was found to be 23 nM; against human 11β-HSD-2 (human enzyme, SPA) it was 12000 nM.

Turning to `CN(CC1CN(C2CCCCCC2)C(=O)C1(C)C)c1ccccc1F` (stereo not shown) [1-cycloheptyl-4-{[(2-fluorophenyl)(methyl)amino]methyl}-3,3-dimethylpyrrolidin-2-one], the IC50 in assay [1] (human enzyme, SPA) is 73 nM; on human 11β-HSD-2 (human enzyme, SPA), over 10000 nM.

With `CC(C)(Oc1ccc(F)cc1Cl)C(=O)N[C@@H]1[C@@H]2C[C@@H]3C[C@H]1C[C@@](S(N)(=O)=O)(C3)C2` [N-[(E)-5-(aminosulfonyl)-2-adamantyl]-2-(2-chloro-4-fluorophenoxy)-2-methyl-propanamide], the IC50 is 89 nM in assay [1] (human enzyme, SPA) and over 100000 nM at human 11β-HSD-2 (human enzyme, SPA).

Take `CC(C(=O)NC1C2CC3CC1CC(O)(C3)C2)N1CCCCCC1` (stereo not shown) [2-azepan-1-yl-N-[(E)-5-hydroxy-2-adamantyl]propanamide]: the IC50 in assay [1] (human enzyme, SPA) was 92 nM; against human 11β-HSD-2 (human enzyme, SPA), over 10000 nM.

On to `O=C(CN1CCN(c2ccc(C(F)(F)F)cn2)CC1)N[C@H]1[C@@H]2C[C@@H]3C[C@H]1C[C@@](F)(C3)C2` [N—[(Z)-5-fluoro-2-adamantyl]-2-{4-[5-(trifluoromethyl)pyridin-2-yl]piperazin-1-yl}acetamide], for which the IC50 in assay [1] was 82 nM; on human 11β-HSD-2 (human enzyme, SPA) it was over 10000 nM.

Consider `CC(C)(Oc1ccc(OC(F)(F)F)cc1)C(=O)NC1C2CC3CC1CC(C(N)=O)(C3)C2` (stereo not shown) [(E)-4-({2-methyl-2-[4-(trifluoromethoxy)phenoxy]propanoyl}amino)adamantane-1-carboxamide], for which the IC50 in assay [1] (human enzyme, SPA) is 40 nM; on human 11β-HSD-2 (human enzyme, SPA), 2600 nM.

`CC(C)(Oc1ccc(O)cc1)C(=O)N[C@@H]1[C@@H]2C[C@@H]3C[C@H]1C[C@@](C(N)=O)(C3)C2` [(E)-4-{[2-(4-hydroxyphenoxy)-2-methylpropanoyl]amino}adamantane-1-carboxamide]: the IC50 in assay [1] (human enzyme, SPA) came out at 18 nM; against human 11β-HSD-2 (human enzyme, SPA) it was 35000 nM.

`CC1(C)C(=O)N(C2C3CC4CC2CC(C#N)(C4)C3)CC1COc1ccc(C#N)cn1` (stereo not shown) [(E)-4-(4-{[(5-cyanopyridin-2-yl)oxy]methyl}-3,3-dimethyl-2-oxopyrrolidin-1-yl) adamantane-1-carbonitrile]: the IC50 in assay [1] (human enzyme, SPA) is 29 nM; on human 11β-HSD-2 (human enzyme, SPA) it was 5270 nM.

`CC(C)(C(=O)N[C@@H]1[C@@H]2C[C@@H]3C[C@H]1C[C@@](C(N)=O)(C3)C2)N1CCN(c2ccccn2)CC1` [(E)-4-{[2-methyl-2-(4-pyridin-2-ylpiperazin-1-yl)propanoyl]amino}adamantane-1-carboxamide]: the IC50 was 37 nM in assay [1] (human enzyme, SPA) and over 30000 nM against human 11β-HSD-2 (human enzyme, SPA).

On to `CC1(C)C(=O)N(C2C3CC4CC2CC(C(N)=O)(C4)C3)CC1COc1ccc(-n2cncn2)cc1` (stereo not shown) [(E)-4-(3,3-dimethyl-2-oxo-4-{[4-(1H-1,2,4-triazol-1-yl)phenoxy]methyl}pyrrolidin-1-yl) adamantane-1-carboxamide], for which the IC50 in assay [1] worked out at 41 nM; against human 11β-HSD-2 (human enzyme, SPA) it was 1600 nM.

Take `CC(C)(Oc1ccc(Cl)cc1)C(=O)NC1C2CC3CC1CC(CS(=O)(=O)NCc1ccc(C(=O)O)cc1)(C3)C2` (stereo not shown) [4-[({[((E)-4-{[2-(4-chlorophenoxy)-2-methylpropanoyl]amino}-1-adamantyl)methyl]sulfonyl}amino)methyl]benzoic acid]: the IC50 in assay [1] (human enzyme, SPA) worked out at 48 nM; against human 11β-HSD-2 (human enzyme, SPA), 18000 nM.

With `CC(C)(Oc1cccc(C(F)(F)F)c1)C(=O)NC1C2CC3CC1CC(C(N)=O)(C3)C2` (stereo not shown) [(E)-4-({2-methyl-2-[3-(trifluoromethyl)phenoxy]propanoyl}amino)adamantane-1-carboxamide], the IC50 in assay [1] (human enzyme, SPA) stood at 44 nM; against human 11β-HSD-2 (human enzyme, SPA), 11000 nM.
